# Measurements reported in patent US12522582B2 (Gilead Sciences, Inc., priority 2022, dated 2026).
# Where two headings read alike, the source gives them in different places.
# What was measured:
# [1] = test system: HSV-2 virus (MS strain); assay: HSV-2 Cellomics Assay (immunofluorescence of HSV protein gD in infected ARPE-19 cells); settings: Human alphaherpesvirus 2, ARPE-19, 16 h
# Method: Compounds were tested for their ability to inhibit HSV-2 replication by monitoring the expression of the HSV protein gD using a high-throughput immunofluorescence-based assay. 10-dose, 3-fold serial dilutions of compounds were prepared at starting concentrations of 0.2 or 2 mM in 100% DMSO. […] The final starting concentration in the assay was either 1 or 10 μM. DMSO (no compound) and pritelivir were included on each microplate as negative and positive controls, respectively.
# Prior to confluence, cells were transferred to a centrifuge tube and spun for 5 minutes at 1000 rpm. Cells were resuspended in assay medium (DMEM/F-12 Glutamax, 2% FBS, 1% Penicillin-Streptomycin) and counted. Cell density was adjusted to 150,000 cells/ml and infected with HSV-2 virus (MS strain, ATCC cat #VR-540) at a MOI of 0.06 in a 50 ml conical tube for 1 hour under constant rocking. Cells were then spun for 5 minutes at 1000 rpm and the media replaced with assay medium containing either 2% FBS or 10% human serum (EMD Millipore cat #S1-100 ML). 50 μl of the infection suspension were added into microplate wells that were pre-spotted with compounds (7,500 cells per well). Plates were incubated for 16 hours at 37° C.
# After a 30-minute incubation at room temperature, plates were washed 4 times with 100 μl/well of PBS using a Biotek plate washer. […] Plates were washed 4 times again and 50 μl of DPBS were added to all wells prior to sealing the plates with a black adhesive seal. Fluorescence was measured on a Cellomics plate reader.
# Data analysis was carried out using the Thermo Scientific HCS Studio software. Briefly, cells were identified using the DAPI nuclear stain and thresholds were set to filter cells out based on shape and size. A second threshold based on green fluorescence intensity (detection of HSV-2 gD) was set to identify HSV-2 infected cells. Data was reported as the average fluorescence intensity of HSV-2 infected cells.
# [2] = MT-4 CC50 Assay (CellTiter Glo); assay type: cell-based; settings: human, MT-4 cells, luminescence, read-out: CC50-MT4
# Method: Compounds were tested in 384-well plates: 18 compounds in duplex. Compounds were diluted in 7 points, 3-fold with DMSO by Bravo. Assay plate, which contains 20 uL medium with compounds, was seeded 2000 MT-4 cells in 20 uL/well by Multi-drop to start the assay. The plate was incubated at 37° C. for 5 days. On 6th day, the CellTiter Glo 40 uL was added in each well. Luminescence was read by Victor II.
# [3] = test system: human cryopreserved hepatocytes; assay: Stability Assay in Cryopreserved Hepatocytes (human); assay type: in vitro ADME; settings: 1 μM, calculated from half-life using the well-stirred model
# Method: Test compound was incubated at 1 μM with either rat or human cryopreserved hepatocytes (BioIVT, Westbury, NY) up to 6 hours at 37° C. in a 24-well plate format (1×10^6 cells/mL per well). At specified time points, samples were transferred to a 96-well plate and quenched with 2 volumes of a solution containing 90% acetonitrile 10% methanol 0.1% formic acid and internal standard. Sample plate was centrifuged at 3200 rpm for 15 min and supernatants transferred to a new plate containing half volume of water. The resulting solution was analyzed by LC-MS/MS. Data (analyte to internal standard peak area ratio) was plotted on a semi-log scale and fitted using an exponential fit. Assuming first order kinetics, the half-life (t1/2) and rate of metabolism were determined. Predicted hepatic clearance was calculated from the half-life using the well-stirred model.
# [4] = test system: HSV-2 virus (MS strain); assay: HSV qPCR Assay (HSV replication in ARPE-19 cells); settings: Human alphaherpesvirus 2, ARPE-19, read-out: EC50-HSV2-qPCR
# Method: HSV replication in the presence or absence of compounds was measured by qPCR according to the following procedure: DMSO stock compound solutions (1-10 mM) were serially diluted (2.5-fold) in DMSO in clear round bottom 96-well plates. Compounds were then diluted 1:20 in assay medium (DMEM/F12 Glutamax+2% Fetal bovine serum+1% Penicillin Streptomycin) and 10 μL of these dilutions were added to 96-well tissue culture plates for final starting concentrations between 0.5 and 5 μM.
# Cells were resuspended in assay medium, counted, and cell density was adjusted to 2.8E+05 cells/ml with assay medium. […] 90 μL of the infection suspension (25,000 cells) were added to assay plates in which compounds were already added. After an overnight incubation at 37° C., cell culture medium was removed, and cell lysis was performed using the prepGEM Universal kit (MicroGEM cat #PUN1000). Specifically, 100 μL of prepGEM master mix (94.75 μL Water, 5 μL buffer, 0.25 μL enzyme stock) were added to each well and plates were incubated at room temperature for 15 minutes, with the 5 last minutes on a plate shaker. The cell lysates were then transferred to a 96-well PCR compatible microplate (Applied Biosystems, Cat #N8010560). Plates were sealed with a heat resistant plastic sealer and heated on a thermal cycler using the following conditions: 75° C. for 10 min, 95° C. for 5 minutes. Finally, plates were cooled down to room temperature with light shaking before proceeding to the qPCR setup.
# Plates were sealed with a clear sealer, spun down, and qPCR reactions were performed in an Applied Biosystems Quantstudio 7 Flex instrument using the following conditions: 95° C. for 2 minutes, then 40 cycles alternating between 95° C. for 5 seconds and 60° C. for 30 seconds.
# Analysis was performed using dCT method where dCT=CT (test)−CT (DMSO). Fold change was calculated using the 2^^dCT equation. This fold change was then converted to percentage relative to DMSO control (no drug). EC50s were determined by non-linear regression analysis using GraphPad Prism software.
# [5] = target: hCAII (Homo sapiens (Human), UniProt P00918); assay: Carbonic Anhydrase (Esterase) Biochemical Assay, hCAII
# Method: (§1) 10-dose, 3-fold serial dilutions of compounds were prepared at starting concentrations of 10 mM in 100% DMSO. […] Final starting concentration in the assay was 50 μM. DMSO (no compound) and acetazolamide were included on each microplate as negative and positive controls, respectively.
# (§2) Following a preincubation at room temperature for 15 minutes, 20 μl of a 4 mM solution of 4NPA substrate (Sigma cat #N8130) in assay buffer were added to start the reaction.
# [6] = target: hCAI (Homo sapiens (Human), UniProt P00915); assay: Carbonic Anhydrase (Esterase) Biochemical Assay, hCAI
# Method: as §1, §2
# [7] = read-out: EC50-HSV2-10% Human Serum
# [8] = read-out: IC50-hCAII, 4-nitrophenyl acetate hydrolysis, 60 min
# [9] = read-out: IC50-hCAI, 4-nitrophenyl acetate hydrolysis, 60 min
# hCAI, sequence (P00915 whole entry): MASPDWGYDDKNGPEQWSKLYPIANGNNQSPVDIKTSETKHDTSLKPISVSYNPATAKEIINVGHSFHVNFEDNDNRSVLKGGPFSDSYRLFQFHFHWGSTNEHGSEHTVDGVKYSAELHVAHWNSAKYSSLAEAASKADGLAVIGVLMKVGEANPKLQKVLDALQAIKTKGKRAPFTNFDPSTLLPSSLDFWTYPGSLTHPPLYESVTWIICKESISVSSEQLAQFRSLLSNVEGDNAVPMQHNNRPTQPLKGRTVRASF
SMILES,"EC50 [1, 7] [nM]",EC50 ([1]; read-out: EC50-HSV2-FBS) [nM],CC50 at 5 days [2] [µM],Predicted human hepatic clearance [3] [L/h/kg],EC50 [4] [nM],"IC50 [5, 8] [µM]","IC50 [6, 9] [µM]",IC50 [6] [µM],IC50 [5] [µM]
"NS(=O)(=O)c1ccc2c(c1)N(C(=O)[C@@H]1Cc3ccc(-c4cnccn4)cc3C1)CC2 [Example 87, (R)-1-(5-(pyrazin-2-yl)-2,3-dihydro-1H-indene-2-carbonyl)indoline-6-sulfonamide]",3280,13,0.306,0.31,,,,,
NS(=O)(=O)c1ccc2c(c1)N(C(=O)C1Cc3ccc(-c4cccc(F)n4)cc3C1)CC2 (centres unmarked) [Example 75],,32,,,14.3,≥ 25,,,
NS(=O)(=O)c1ccc2c(c1)N(C(=O)C1Cc3ccc(-c4cnccn4)cc3C1)CC2 (centres unmarked) [Example 74],11800,59,,,8.3,≥ 25,,,
C[C@@H]1Cc2cc(F)c(S(N)(=O)=O)cc2N1C(=O)[C@H]1Cc2cc(-c3ccccn3)ccc2O1 [Example 44],326,14,≥ 10,0.05,1,,,,
"NS(=O)(=O)c1ccc2c(c1)N(C(=O)[C@@H]1Cc3ccc(-c4ccccn4)cc3C1)CC2 [Example 81, (R)-1-(5-(pyridin-2-yl)-2,3-dihydro-1H-indene-2-carbonyl)indoline-6-sulfonamide]",≥ 25000,20,≥ 50,0.14,1.9,≥ 25,,,
"NS(=O)(=O)c1cc2c(cc1F)C[C@@H](CF)N2C(=O)[C@@H]1Cc2ccc(-c3ccccn3)cc2C1 [Example 125, (S)-5-fluoro-2-(fluoromethyl)-1-((R)-5-(pyridin-2-yl)-2,3-dihydro-1H-indene-2-carbonyl)indoline-6-sulfonamide]",70.2,11.1,,0.062,0.56,,,,
NS(=O)(=O)c1ccc2c(c1)N(C(=O)C1Cc3ccc(-c4nccnc4F)cc3C1)CC2 (centres unmarked) [Example 73],6040,129,,,17.5,≥ 25,,,
"NS(=O)(=O)c1cc2c(cc1F)CCN2C(=O)[C@@H]1Cc2ccc(-c3ccccn3)cc2O1 [Example 65, (S)-5-fluoro-1-(6-(pyridin-2-yl)-2,3-dihydrobenzofuran-2-carbonyl)indoline-6-sulfonamide]",147,16,≥ 10,0.05,1.4,,,,
"NS(=O)(=O)c1cc2c(cc1F)C[C@H](C(F)F)N2C(=O)[C@@H]1Cc2ccc(-c3ccccn3)cc2C1 [Example 127, (R)-2-(difluoromethyl)-5-fluoro-1-((R)-5-(pyridin-2-yl)-2,3-dihydro-1H-indene-2-carbonyl)indoline-6-sulfonamide]",5440,553,,0.34,58.3,2.46,4.19,,
C[C@@H]1Cc2ccc(S(N)(=O)=O)cc2N1C(=O)[C@@H]1Cc2ccc(-c3ccccn3)cc2C1 [Example 15],276,28,≥ 50,0.056,4.9,,,,
"C[C@@H]1Cc2cc(Cl)c(S(N)(=O)=O)cc2N1C(=O)[C@@H]1Cc2ccc(-c3ccccn3)cc2C1 [Example 60, (R)-5-chloro-2-methyl-1-((R)-5-(pyridin-2-yl)-2,3-dihydro-1H-indene-2-carbonyl)indoline-6-sulfonamide]",434,13,≥ 10,0.17,,,,,
"NS(=O)(=O)c1cc2c(cc1F)CCN2C(=O)[C@@H]1Cc2ccc(-c3cc(F)ccc3F)cc2C1 [Example 58, (R)-1-(5-(2,5-difluorophenyl)-2,3-dihydro-1H-indene-2-carbonyl)-5-fluoroindoline-6-sulfonamide]",4310,12,≥ 10,0.32,,,,,
C[C@@H]1Cc2cc(F)c(S(N)(=O)=O)cc2N1C(=O)[C@@H]1Cc2ccc(-c3ccccn3)cc2C1 [Example 35],57.5,7,24,0.055,1.1,,,,
"NS(=O)(=O)c1ccc2c(c1)N(C(=O)[C@@H]1Cc3ccc(-c4ncccc4F)cc3C1)CC2 [Example 89, (R)-1-(5-(3-fluoropyridin-2-yl)-2,3-dihydro-1H-indene-2-carbonyl)indoline-6-sulfonamide]",1960,23,0.308,0.05,,,,,
"C[C@H]1c2ccc(-c3ccccn3)cc2C[C@@H]1C(=O)N1CCc2cc(F)c(S(N)(=O)=O)cc21 [Example 97, 5-fluoro-1-((1R,2S)-1-methyl-5-(pyridin-2-yl)-2,3-dihydro-1H-indene-2-carbonyl)indoline-6-sulfonamide]",56,14,≥ 50,,1.3,,,≥ 50,≥ 50
"C[C@H]1c2ccc(-c3ccccn3)cc2C[C@@H]1C(=O)N1CCc2ccc(S(N)(=O)=O)cc21 [Example 94, 1-((1R,2S)-1-methyl-5-(pyridin-2-yl)-2,3-dihydro-1H-indene-2-carbonyl)indoline-6-sulfonamide]",195,49,≥ 50,,3.9,≥ 50,,,
C[C@H]1Cc2cc(F)c(S(N)(=O)=O)cc2N1C(=O)[C@@H]1Cc2ccc(-c3ccccn3)cc2C1 [Example 34],1570,158,,0.20,,,,,
NS(=O)(=O)c1cc2c(cc1F)CCN2C(=O)[C@@H]1Cc2ccc(-c3ccccn3)cc2C1 [Example 28],8440,6,≥ 50,0.22,,,,,
"NS(=O)(=O)c1cc2c(cc1F)C[C@@H](C(F)F)N2C(=O)[C@@H]1Cc2ccc(-c3ccccn3)cc2C1 [Example 128, (S)-2-(difluoromethyl)-5-fluoro-1-((R)-5-(pyridin-2-yl)-2,3-dihydro-1H-indene-2-carbonyl)indoline-6-sulfonamide]",62.9,8.3,,0.21,1.4,7.42,≥ 50,,
NS(=O)(=O)c1ccc2c(c1)N(C(=O)C1Cc3ccc(-c4ncccc4F)cc3C1)CC2 (centres unmarked) [Example 76],,107,2.5,,22,≥ 25,,,
"NS(=O)(=O)c1cc2c(cc1F)C[C@H](CF)N2C(=O)[C@@H]1Cc2ccc(-c3ccccn3)cc2C1 [Example 126, (R)-5-fluoro-2-(fluoromethyl)-1-((R)-5-(pyridin-2-yl)-2,3-dihydro-1H-indene-2-carbonyl)indoline-6-sulfonamide]",≥ 10000,≥ 1000,,0.16,56.7,,,,
NS(=O)(=O)c1cc2c(cc1Cl)CCN2C(=O)C1Cc2ccc(-c3ccccn3)cc2C1 (centres unmarked) [Example 5],≥ 25000,35,,,10.9,≥ 25,,,
"C[C@H]1c2ccc(-c3ccccn3)cc2C[C@@H]1C(=O)N1C[C@@H](C(F)(F)F)c2cc(F)c(S(N)(=O)=O)cc21 [Example 138, (S)-5-fluoro-1-((1R,2S)-1-methyl-5-(pyridin-2-yl)-2,3-dihydro-1H-indene-2-carbonyl)-3-(trifluoromethyl)indoline-6-sulfonamide]",184,23.4,,0.06,2,,,,
"C[C@@H]1Cc2cc(F)c(S(N)(=O)=O)cc2N1C(=O)[C@@H]1Cc2ccc(-c3cc(F)ccc3F)cc2C1 [Example 61, (R)-1-((R)-5-(2,5-difluorophenyl)-2,3-dihydro-1H-indene-2-carbonyl)-5-fluoro-2-methylindoline-6-sulfonamide]",169,28,≥ 10,0.15,,,,,
